Laboratory results taken from patent publication US20200038418A1, “METHODS OF TREATING AUTISM SPECTRUM DISORDER USING AMINOSTEROL COMPOSITIONS” (Enterin, Inc., priority 2018, published 2020).

Assays:
[1] = single and repeat intravenous administration, alone or in combination; cited from earlier work
[2] = intravenous administration, prior studies; cited from earlier work
[3] = system: mice with constipation due to overexpression of human αS; test: Gastrointestinal motility in mouse models of PD; format: in vivo
[4] = system: IPANs (intrinsic primary afferent neuron); test: Perfusion of isolated segment of bowel from the PD mouse model; conditions: perfusion through the lumen of isolated bowel segment from PD mouse model
[5] = systemic administration, mice; cited from earlier work

In the case of CC(C)[C@@H](CC[C@@H](C)[C@H]1CC[C@H]2[C@@H]3[C@H](O)C[C@H]4C[C@@H](NCCCNCCCCN)CC[C@]4(C)[C@H]3CC[C@]12C)OS(=O)(=O)O.C[C@H](O)C(=O)O.C[C@H](O)C(=O)O [squalamine dilactate salt], the dose well tolerated [1] is given as “at least 300 mg/m^2”.
In the case of CC(C)[C@@H](CC[C@@H](C)[C@H]1CC[C@H]2[C@@H]3[C@H](O)C[C@H]4C[C@@H](NCCCNCCCCN)CC[C@]4(C)[C@H]3CC[C@]12C)OS(=O)(=O)O [squalamine], the gastrointestinal motility [2] is listed as “not associated with increased gastrointestinal motility”, the gastro-intestinal motility ([3]; orally administered, mice with constipation due to overexpression of human αS) is listed as “stimulates gastro-intestinal motility” and the “effect on gastrointestinal dysmotility” value ([3]; several mouse models of PD) is listed as “reverse gastrointestinal dysmotility”. For the same compound, the “effect on IPANs and peristaltic contractions” value [4] was “excitation of IPANs” and the clearance and excretion [5] was “cleared by the liver and excreted as the intact molecule”.
